Active and inactive are the calls of the source. The calls are words filed in the database; no cut-off is given here.
Experiments:
[1] = test system: Human immunodeficiency virus 1; assay type: functional, organism-based; conditions: Human immunodeficiency virus 1, NL4-3, MT2
[2] = test system: Human immunodeficiency virus 1; assay: microbe, parasite or virus in culture; conditions: Human immunodeficiency virus 1, NL4-3, MT2
Description: Antiviral activity against 0.01 MOI wild type HIV1 NL4-3 infected in 2 hr-pretreated human MT2 cells measured after 5 days by RT SPA

[3] = test system: Human immunodeficiency virus 1; assay: Antiviral activity against HIV1 3B infected in MOLT-4/3B cells assessed as inhibition of mature virus release measured after 4 days of infection by RT assay; assay type: functional, organism-based; conditions: Human immunodeficiency virus 1, 3B, MOLT-4, 96 h
[4] = test system: Human immunodeficiency virus 1; assay: microbe, parasite or virus in culture; conditions: Human immunodeficiency virus 1, NL4-3, MT2; remark: listed apart in the source
[5] = test system: Human immunodeficiency virus 1; assay: microbe, parasite or virus in culture; conditions: Human immunodeficiency virus 1, subtype B-NL4-3, MT2
Description: Antiviral activity against HIV1 subtype B-NL4-3 infected in 1 hr-pretreated human MT2 cells assessed as inhibition of multicycle replication measured on day 5 postinfection by RT SPA

[6] = test system: Human immunodeficiency virus 1; assay: microbe, parasite or virus in culture; conditions: Human immunodeficiency virus 1, NL4-3, MT2; remark: listed apart in the source
Description: Antiviral activity against 0.05 MOI wild type HIV1 NL4-3 infected in 2 hr-pretreated human MT2 cells measured after 5 days by RT SPA

[7] = test system: Human immunodeficiency virus 1; assay: microbe, parasite or virus in culture; conditions: Human immunodeficiency virus 1, NL4-3, MT2, 120 h
Description: Antiviral activity against 0.01 MOI wild type HIV1 NL4-3 infected in human MT2 cells measured after 5 days by RT SPA

[8] = test system: Human immunodeficiency virus 1; assay: microbe, parasite or virus in culture; conditions: Human immunodeficiency virus 1, subtype B-ASM 044, PBMC
Description: Antiviral activity against HIV1 subtype B-ASM 044 infected in 1 hr-pretreated PBMC cells assessed as inhibition of p24 antigen production measured on day 5 postinfection by ELISA

[9] = test system: Human immunodeficiency virus 1; assay: microbe, parasite or virus in culture; conditions: Human immunodeficiency virus 1, subtype B-92US076, PBMC
Description: Antiviral activity against HIV1 subtype B-92US076 infected in 1 hr-pretreated PBMC cells assessed as inhibition of p24 antigen production measured on day 5 postinfection by ELISA

[10] = test system: Human immunodeficiency virus 1; assay: microbe, parasite or virus in culture; conditions: Human immunodeficiency virus 1, subtype B-RF, MT2
Description: Antiviral activity against HIV1 subtype B-RF infected in 1 hr-pretreated human MT2 cells assessed as inhibition of multicycle replication measured on day 5 postinfection by RT SPA

[11] = test system: Human immunodeficiency virus 1; assay: microbe, parasite or virus in culture; conditions: Human immunodeficiency virus 1, NL4-3, MT2; remark: listed apart in the source
Description: Antiviral activity against 0.02 MOI wild type HIV1 NL4-3 infected in 2 hr-pretreated human MT2 cells measured after 5 days by MTS assay

[12] = test system: Human immunodeficiency virus 1; assay: microbe, parasite or virus in culture; conditions: Human immunodeficiency virus 1, subtype B-LAI, MT2
Description: Antiviral activity against HIV1 subtype B-LAI infected in 1 hr-pretreated human MT2 cells assessed as inhibition of multicycle replication measured on day 5 postinfection by RT SPA

[13] = test system: Human immunodeficiency virus 1; assay type: functional, organism-based; conditions: NL4-3, 2.5 uM
[14] = test system: Human immunodeficiency virus 1; assay: microbe, parasite or virus in culture; conditions: Human immunodeficiency virus 1, NL4-3, MT2, 120 h; remark: listed apart in the source
Description: Antiviral activity against 0.01 MOI wild type HIV1 NL4-3 infected in human MT2 cells measured after 5 days by MTS assay

[15] = test system: Human immunodeficiency virus; assay: Antiviral activity against HIV infected in CD4+ lymphocyte by fluorescence-activated cell sorter assay; assay type: functional, organism-based; conditions: Human immunodeficiency virus 1
[16] = test system: Human immunodeficiency virus 1; assay: Antiviral activity against pseudotype HIV1 LAI-Luc infected in human MT2 cells measured on day 3 postinfection by luciferase reporter gene assay; assay type: functional, organism-based; conditions: Human immunodeficiency virus 1, LAI-Luc, MT2, 72 h
[17] = test system: Human immunodeficiency virus 1; assay: microbe, parasite or virus in culture; conditions: Human immunodeficiency virus 1, NL4-3, MT2; remark: listed apart in the source
Description: Antiviral activity against 0.005 MOI wild type HIV1 NL4-3 infected in 2 hr-pretreated human MT2 cells measured after 5 days by RT SPA

[18] = test system: Human immunodeficiency virus 1; assay: microbe, parasite or virus in culture; conditions: Human immunodeficiency virus 1, NL4-3, MT2, 120 h; remark: listed apart in the source
Description: Antiviral activity against 0.05 MOI wild type HIV1 NL4-3 infected in human MT2 cells measured after 5 days by MTS assay

[19] = test system: Human immunodeficiency virus 1; assay: microbe, parasite or virus in culture; conditions: Human immunodeficiency virus 1, NL4-3, MT2; remark: listed apart in the source
Description: Antiviral activity against 0.02 MOI wild type HIV1 NL4-3 infected in 2 hr-pretreated human MT2 cells measured after 5 days by RT SPA

[20] = test system: Human immunodeficiency virus 1; assay: Antiviral activity against pseudotype HIV1 LAI-Luc infected in CD4-positive human HeLa cells measured on day 3 postinfection by luciferase reporter gene assay; assay type: functional, organism-based; conditions: Human immunodeficiency virus 1, LAI-Luc, 72 h
[21] = test system: Human immunodeficiency virus 1; assay: microbe, parasite or virus in culture; conditions: Human immunodeficiency virus 1, NL4-3, MT2, 120 h; remark: listed apart in the source
Description: Antiviral activity against 0.005 MOI wild type HIV1 NL4-3 infected in human MT2 cells measured after 5 days by MTS assay

[22] = test system: Human immunodeficiency virus 1; assay: microbe, parasite or virus in culture; conditions: Human immunodeficiency virus 1, subtype B-93US143, PBMC
Description: Antiviral activity against HIV1 subtype B-93US143 infected in 1 hr-pretreated PBMC cells assessed as inhibition of p24 antigen production measured on day 5 postinfection by ELISA

[23] = test system: Hepatitis B virus; assay: Antiviral activity against Hepatitis B virus; assay type: functional, organism-based
[24] = Cmax in human at 1 mg, po; conditions: in vivo
[25] = test system: Human immunodeficiency virus 1; assay: Antiviral activity against HIV1 infected in human CEM-SS cells after 10 days by MTT assay; assay type: functional, organism-based; conditions: Human immunodeficiency virus 1, CEM-SS, 240 h
[26] = test system: Human immunodeficiency virus 1; assay: microbe, parasite or virus in culture; conditions: Human immunodeficiency virus 1, NL4-3, MT2, 120 h; remark: listed apart in the source
Description: Antiviral activity against 0.02 MOI wild type HIV1 NL4-3 infected in human MT2 cells measured after 5 days by MTS assay

[27] = test system: CEM-SS; assay: Cytotoxicity against human CEM-SS cells after 10 days by MTT assay; assay type: cell-based; conditions: 240 h
[28] = test system: Human immunodeficiency virus 1; assay: Antiviral activity against 0.006 MOI HIV1 NL4-3 infected in 2 hr-pretreated human MT2 cells measured after 5 days by RT SPA; assay type: functional, organism-based; conditions: Human immunodeficiency virus 1, NL4-3, MT2
[29] = test system: Human immunodeficiency virus 1; assay: Antiviral activity against HIV1 NL4-3 harboring M184L mutant RT infected in human MT2 cellssmeasured after 7 passages on day 34 postinfection; assay type: functional, organism-based; conditions: Human immunodeficiency virus 1, NL4-3, MT2
[30] = test system: Human immunodeficiency virus 1; assay: microbe, parasite or virus in culture; conditions: Human immunodeficiency virus 1, NL4-3, MT2; remark: listed apart in the source
Description: Antiviral activity against 0.005 MOI wild type HIV1 NL4-3 infected in 2 hr-pretreated human MT2 cells measured after 5 days by MTS assay

[31] = test system: Human immunodeficiency virus 1; assay: Antiviral activity against 0.006 MOI HIV1 NL4-3 infected in human MT2 cells measured after 5 days by RT SPA; assay type: functional, organism-based; conditions: Human immunodeficiency virus 1, NL4-3, MT2, 120 h
[32] = test system: Human immunodeficiency virus 1; assay: Antiviral activity against HIV1 subtype B-NL4-3 infected in 3 hrs pretreated human MT2 cells assessed as inhibition of multicycle replication measured on day 5 postinfection by RT SPA; assay type: functional, organism-based; conditions: Human immunodeficiency virus 1, subtype B-NL4-3, MT2
[33] = test system: Human immunodeficiency virus 1; assay: microbe, parasite or virus in culture; conditions: Human immunodeficiency virus 1, NL4-3, MT2, 120 h; remark: listed apart in the source
Description: Antiviral activity against 0.05 MOI wild type HIV1 NL4-3 infected in human MT2 cells measured after 5 days by RT SPA

[34] = test system: Human immunodeficiency virus 1; assay: Antiviral activity against 0.006 MOI HIV1 NL4-3 infected in 1 hr-pretreated human MT2 cells measured after 5 days by RT SPA; assay type: functional, organism-based; conditions: Human immunodeficiency virus 1, NL4-3, MT2
[35] = test system: Human immunodeficiency virus 1; assay type: functional, organism-based; conditions: Human immunodeficiency virus 1, NL4-3, MT2; remark: listed apart in the source
[36] = test system: Human immunodeficiency virus 1; assay: microbe, parasite or virus in culture; conditions: Human immunodeficiency virus 1, NL4-3, MT2; remark: listed apart in the source
Description: Antiviral activity against 0.05 MOI wild type HIV1 NL4-3 infected in 2 hr-pretreated human MT2 cells measured after 5 days by MTS assay

[37] = test system: Human immunodeficiency virus 1; assay: microbe, parasite or virus in culture; conditions: Human immunodeficiency virus 1, NL4-3, MT2; remark: listed apart in the source
Description: Antiviral activity against 0.01 MOI wild type HIV1 NL4-3 infected in 2 hr-pretreated human MT2 cells measured after 5 days by MTS assay

[38] = test system: Human immunodeficiency virus 1; assay: Antiviral activity against 0.005 MOI HIV1 NL4-3 harboring wild type RT infected in human MT2 cells by phenosense assay; assay type: functional, organism-based; conditions: Human immunodeficiency virus 1, NL4-3, MT2
[39] = test system: Human immunodeficiency virus 1; assay: microbe, parasite or virus in culture; conditions: Human immunodeficiency virus 1, NL4-3, MT2, 120 h; remark: listed apart in the source
Description: Antiviral activity against 0.005 MOI wild type HIV1 NL4-3 infected in human MT2 cells measured after 5 days by RT SPA

[40] = test system: Human immunodeficiency virus 1; assay: Antiviral activity against HIV1 subtype B-NL4-3 infected in 2 hrs pretreated human MT2 cells assessed as inhibition of multicycle replication measured on day 5 postinfection by RT SPA; assay type: functional, organism-based; conditions: Human immunodeficiency virus 1, subtype B-NL4-3, MT2
[41] = test system: Human immunodeficiency virus 1; assay: microbe, parasite or virus in culture; conditions: Human immunodeficiency virus 1, NL4-3, MT2, 120 h; remark: listed apart in the source
Description: Antiviral activity against 0.02 MOI wild type HIV1 NL4-3 infected in human MT2 cells measured after 5 days by RT SPA

[42] = test system: Human immunodeficiency virus 1; assay: microbe, parasite or virus in culture; conditions: Human immunodeficiency virus 1, NL-RLuc, MT2, 120 h
Description: Antiviral activity against pseudotype HIV1 NL-RLuc infected in human MT2 cells measured on day 5 postinfection by luciferase reporter gene assay

[43] = Cmax in human blood; assay type: ADME, organism-based
[44] = test system: Human immunodeficiency virus 1; assay: microbe, parasite or virus in culture; conditions: Human immunodeficiency virus 1, subtype B-SF-2, MT2
Description: Antiviral activity against HIV1 subtype B-SF-2 infected in 1 hr-pretreated human MT2 cells assessed as inhibition of multicycle replication measured on day 5 postinfection by RT SPA

[45] = test system: Human immunodeficiency virus 1; assay: microbe, parasite or virus in culture; conditions: Human immunodeficiency virus 1, subtype B-HXB2, MT2
Description: Antiviral activity against HIV1 subtype B-HXB2 infected in 1 hr-pretreated human MT2 cells assessed as inhibition of multicycle replication measured on day 5 postinfection by RT SPA

[46] = test system: Human immunodeficiency virus 1; assay: microbe, parasite or virus in culture; conditions: Human immunodeficiency virus 1, subtype B-ASM 034, PBMC
Description: Antiviral activity against HIV1 subtype B-ASM 034 infected in 1 hr-pretreated PBMC cells assessed as inhibition of p24 antigen production measured on day 5 postinfection by ELISA

[47] = test system: Human immunodeficiency virus 1; assay: microbe, parasite or virus in culture; conditions: Human immunodeficiency virus 1, subtype B-3B, MT2
Description: Antiviral activity against HIV1 subtype B-3B infected in 1 hr-pretreated human MT2 cells assessed as inhibition of multicycle replication measured on day 5 postinfection by RT SPA

[48] = test system: Human immunodeficiency virus 1; assay: Antiviral activity against pseudotype HIV1 NL-Luc infected in 24 hrs pretreated HEK293 cells by phenosense assay; assay type: functional, organism-based; conditions: Human immunodeficiency virus 1, NL-Luc
[49] = test system: Human immunodeficiency virus 1; assay: Antiviral activity against pseudotype HIV1 LAI-Luc infected in human PBMC measured on day 3 postinfection by luciferase reporter gene assay; assay type: functional, organism-based; conditions: Human immunodeficiency virus 1, LAI-Luc, 72 h

O=C1Nc2ccc(Cl)cc2[C@@](C#CC2CC2)(C(F)(F)F)O1 [EFAVIRENZ]
EC50 [1]: 0.0002 µM

C=C1[C@H](CO)[C@@H](O)C[C@@H]1n1cnc2c(=O)[nH]c(N)nc21.O [ENTECAVIR]
EC50 [2]: 9.57 µM | EC50 [3]: > 38 µM | EC50 [4]: 0.056 µM | EC50 [5]: 0.085 µM | EC50 [6]: > 10000 µM | EC50 [7]: 0.095 µM | EC50 [8]: 0.026 µM | EC50 [9]: 0.062 µM | EC50 [10]: 0.839 µM | EC50 [11]: > 10 µM | EC50 [12]: 0.071 µM | Activity [13]: Active | EC50 [14]: > 2.9 µM | EC50 [15]: 0.0001 µM | EC50 [16]: > 1.2 µM | EC50 [17]: 3.62 µM | EC50 [18]: > 10 µM | EC50 [19]: > 10000 µM | EC50 [20]: > 4 µM | EC50 [21]: 1.36 µM | EC50 [22]: 1.75 µM | EC50 [23]: 0.004 µM | Cmax [24]: 30 nM | EC50 [25]: > 10 µM | EC50 [26]: > 6.35 µM | CC50 [27]: 21 µM | EC50 [28]: 13.5 µM | EC50 [29]: > 10 µM | EC50 [30]: > 10 µM | EC50 [1]: > 10 µM | EC50 [31]: 0.151 µM | EC50 [32]: > 10 µM | EC50 [33]: 6.45 µM | EC50 [34]: 0.287 µM | EC50 [35]: > 100 µM | EC50 [36]: > 10 µM | EC50 [37]: > 9.69 µM | EC50 [38]: 30.6 µM | EC50 [39]: 0.056 µM | EC50 [40]: 1.4 µM | EC50 [41]: 0.449 µM | EC50 [42]: 1.3 µM | Cmax [43]: 30 nM | EC50 [44]: 0.526 µM | EC50 [45]: 1.03 µM | EC50 [46]: 0.109 µM | EC50 [47]: 0.081 µM | EC50 [48]: 30.6 µM | EC50 [49]: > 2.5 µM

Nc1ccn([C@@H]2CS[C@H](CO)O2)c(=O)n1 [LAMIVUDINE]
EC50 [2]: 0.667 µM | EC50 [3]: > 100 µM | EC50 [4]: 0.04 µM | EC50 [5]: 0.171 µM | EC50 [6]: 2.47 µM | EC50 [7]: 0.063 µM | EC50 [8]: 0.04 µM | EC50 [9]: 0.081 µM | EC50 [10]: 0.105 µM | EC50 [11]: 2.44 µM | EC50 [12]: 0.182 µM | Activity [13]: inactive | EC50 [14]: 0.554 µM | EC50 [17]: 0.462 µM | EC50 [18]: 0.927 µM | EC50 [19]: 1.99 µM | EC50 [21]: 0.219 µM | EC50 [22]: 0.85 µM | EC50 [26]: 0.969 µM | EC50 [30]: 1.26 µM | EC50 [1]: > 10 µM | EC50 [33]: 0.372 µM | EC50 [36]: 3.25 µM | EC50 [37]: 1.68 µM | EC50 [39]: 0.04 µM | EC50 [41]: 0.086 µM | EC50 [42]: 1.14 µM | EC50 [44]: 0.183 µM | EC50 [45]: 0.202 µM | EC50 [46]: 0.071 µM | EC50 [47]: 0.047 µM

Cc1c(O)cccc1C(=O)N[C@@H](CSc1ccccc1)[C@H](O)CN1C[C@H]2CCCC[C@H]2C[C@H]1C(=O)NC(C)(C)C [NELFINAVIR]
EC50 [3]: 0.029 µM

Cc1cn([C@H]2C[C@H](N=[N+]=[N-])[C@@H](CO)O2)c(=O)[nH]c1=O [ZIDOVUDINE]
EC50 [2]: 0.075 µM | EC50 [3]: > 10 µM | EC50 [4]: 0.01 µM | EC50 [5]: 0.0049 µM | EC50 [6]: 0.249 µM | EC50 [7]: 0.008 µM | EC50 [8]: 0.016 µM | EC50 [9]: 0.008 µM | EC50 [10]: 0.0029 µM | EC50 [11]: 0.223 µM | EC50 [12]: 0.0038 µM | EC50 [14]: 0.038 µM | EC50 [17]: 0.051 µM | EC50 [18]: 0.087 µM | EC50 [19]: 0.209 µM | EC50 [21]: 0.027 µM | EC50 [22]: 0.034 µM | EC50 [26]: 0.054 µM | EC50 [30]: 0.117 µM | EC50 [1]: 0.005 µM | EC50 [33]: 0.043 µM | EC50 [36]: 0.302 µM | EC50 [37]: 0.144 µM | EC50 [39]: 0.01 µM | EC50 [41]: 0.018 µM | EC50 [42]: 0.016 µM | EC50 [44]: 0.0063 µM | EC50 [45]: 0.014 µM | EC50 [46]: 0.018 µM | EC50 [47]: 0.0012 µM
